In patent publication US12145975B2, “Fusion proteins for the treatment of cardiometabolic diseases” (Shattuck Labs, Inc., priority 2022, dated 2024):
Entries after “also recorded” stand apart in the source; their conditions may differ. Where no end group is shown, it is not given here.

How the values were obtained:
[1] = test system: HFD-fed mice; assay: glucose tolerance test (GTT) model in HFD-fed mice; assay type: in vivo; conditions: for serum insulin following glucose administration (time course) / glucose tolerance: GTT; for serum insulin following glucose administration (time course): FIG. 7C; for glucose tolerance: summary of Example 11; for serum glucose following glucose administration (time course): i.v. treatment, 18 hours fast, 2 g/kg glucose i.v., tirzepatide 1.25 mpk, fusion protein 5 mpk, mRNA 1 mpk, FIG. 7A
Method: Cages were changed once, then changed once a week.
The mice administered the above treatment by i.v. injections. The mice were then fasted for 18 hours and administered a dose of 2 g/kg glucose by i.v. injections. Blood samples were drawn by tail clip bleeding at 15, 30 and 60 minutes post dosing and cardiac bleeding was used at 2 hours after glucose injection as end-point.

[2] = test system: HFD-fed mice; assay: longer-term obesity model in HFD-fed mice; conditions: for blood glucose levels compared to the untreated mice: Days 0, 1, 10 and 15, FIG. 8E; for weights of individual mice: FIG. 8B; for plasma insulin levels on Day 15: FIG. 8C right panel; for average daily food intake compared to the untreated mice: FIG. 8D; for collagen staining (fibrosis), liver sections stained with picrosirius red / collagen staining (fibrosis) in comparison with tirzepatide or dulaglutide: FIG. 8I; for hepatocellular ballooning and steatosis (liver H&E histology): FIG. 8J; for plasma insulin levels on Day 1: between 15 and 120 minutes after treatment, FIG. 8C left panel; for liver weight, PBS control versus treated mice / subcutaneous white adipose tissue (sWAT) weight: day 19 terminal necropsy; for liver weight, PBS control versus treated mice: FIG. 8G; for subcutaneous white adipose tissue (sWAT) weight: FIG. 8H; for tolerability / clinical observations: obesity model, repeated tail vein dosing; for collagen staining (fibrosis) in comparison with tirzepatide or dulaglutide: picrosirius red; for change in body weight: tail vein on Day 0, 4, 7, 10, 14, 18, dulaglutide 1 mpk, tirzepatide 0.5 mpk, fusion protein 5 mpk, mRNA 1 mpk, FIG. 8A
Method: Mice (Male C57BL/6) were of approximately 13 weeks of age were housed 4 mice per cage. Following 2 weeks of acclimation, mice were introduced to 60% kcal HFD (Research Diets D12492). Cages were changed once, then changed once a week. Weekly body weights and non-fasted blood glucose were collected.
Mice were injected by tail vein with vehicle or the drugs on Day 0, Day 4, Day 7, Day 10, Day 14, and Day 18. Body weights were measured every 2 days. Change in body weight was calculated and plotted.
Cumulative food intake was measured between day 0 and 3, between day 4 and 7, between day 7 and day 11, and between day 11 and day 14, and represented as average daily food intake. For food consumption, remaining food was weighed on days 3, 8, and 15, and subtracted from the starting weight. This value was then normalized to the number of mice in the cage, and the number of days the mice had access to the food prior to weighing.
Blood glucose levels were measured on Days 0, 1, 10 and 15 and plotted.
On day 19 during terminal necropsy, liver and subcutaneous white adipose tissue were recovered weighed from treated animals.
To further analyze the changes in liver, histopathological analysis was conducted. Briefly, the liver tissue was stained with hematoxylin and eosin (H&E) and evaluated using standard techniques.

[3] = molecular target: T1, GIP receptor (GIPR) (Rattus norvegicus, UniProt P43219); assay: cAMP-Glo assay in rat insulinoma INS-1 cells harboring a cAMP-luciferase reporter gene; assay type: cell-based; conditions: 1 hour glucose, then 2 hour incubation with increasing amounts; FIG. 4A
T1 construct: endogenous in cells; host or cells: rat INS-1 insulinoma cells (derivatives with a cAMP-luciferase reporter or pGloSensor-22F)
T1 sequence (P43219 19-455): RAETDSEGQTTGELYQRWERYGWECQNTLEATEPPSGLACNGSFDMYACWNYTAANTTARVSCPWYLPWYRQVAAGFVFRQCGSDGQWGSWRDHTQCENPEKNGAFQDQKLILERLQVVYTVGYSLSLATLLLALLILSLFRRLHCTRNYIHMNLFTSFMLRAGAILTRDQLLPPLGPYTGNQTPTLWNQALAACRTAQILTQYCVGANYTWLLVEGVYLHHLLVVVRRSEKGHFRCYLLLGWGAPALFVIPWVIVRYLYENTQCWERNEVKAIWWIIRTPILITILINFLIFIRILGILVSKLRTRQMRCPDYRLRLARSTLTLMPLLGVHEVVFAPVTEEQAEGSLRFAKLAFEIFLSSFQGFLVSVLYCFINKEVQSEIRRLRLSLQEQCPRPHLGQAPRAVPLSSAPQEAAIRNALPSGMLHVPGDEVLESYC
From the text: Rat insulinoma INS-1 cells harboring a cAMP-luciferase reporter gene were used to study the activation of GIPR. Without wishing to be bound by theory, the activation of GIPR leads to temporary depletion of ATP because of consumption of ATP in cyclization reaction to produce cAMP as well as by phosphorylation by protein kinase A of its substrate. Without wishing to be bound by theory, the temporary depletion of ATP leads to an inhibition of luciferase activity, which needs ATP as a substrate.

[4] = test system: rat insulinoma INS-1 cells; assay: in vitro glucose-stimulated insulin secretion (GSIS) in rat insulinoma INS-1 cells; assay type: cell-based; conditions: 1 hour glucose, then 2 hour incubation; ELISA; FIG. 4B
From the text: X is a known inducer of GSIS.

[5] = molecular target: T2, GIPR (Rattus norvegicus, UniProt P43219); assay: GIPR agonism/antagonism in rat INS-1 cells having pGloSensor-22F biosensor; assay type: cell-based; parameters: dose or concentration left out as unconfirmed
T2 construct: endogenous in cells; host or cells: rat INS-1 insulinoma cells (derivatives with a cAMP-luciferase reporter or pGloSensor-22F)
T2 sequence (P43219 19-455): T1 sequence (P43219 19-455)
Method: A series of GIP antagonist peptides were evaluated at blocking human GIP (hGIP) agonism and the induction of cAMP. Briefly, rat INS-1 cells having pGloSensor-22F (Promega) were constructed and used to evaluate GIPR agonism and antagonism. […] The conformational change leads to the activation of the luciferase enzyme, thereby allowing detection of activation of GIPR, which produces cAMP upon activation.
To assay for GIPR agonism, rat INS-1 cells having pGloSensor-22F biosensor were treated with increasing concentrations of GIP(Ag). Immediately after the addition, the luminescence of the cells was measured, normalized using the basal luminescence and plotted.
GIPR antagonism was measured as the inhibition of GIP(Ag)-induced activation of the cAMP-luciferase reporter gene in rat INS-1 cells having pGloSensor-22F biosensor. The following GIP derivatives accessed in this assay for GIPR antagonism: GIP(Ant 3-30), GIP(Ant 3-30NH2), (GIP(Ant 3-30) having amidated carboxy terminus), GIP(AntPro3), GIP(AntPro3NH2), GIP(Ant3-30, Pro3) and GIP(Ant3-30, Pro3NH2). Briefly, rat INS-1 cells having pGloSensor-22F were treated with increasing doses of the above various GIP derivatives, mixed with […] GIP(Ag). Immediately after the addition, the luminescence of the cells was measured, normalized using the basal luminescence and plotted.
The GIP(Ag) was re-evaluated across a broader concentration range. Rat INS-1 cells having pGloSensor-22F biosensor were treated with increasing concentrations of GIP(Ag). Immediately after the addition, the luminescence of the cells was measured, normalized using the basal luminescence and plotted.
The GIP(AntPro3) and GIP(AntPro3NH2) were re-evaluated across a broader concentration range. Briefly, rat INS-1 cells having pGloSensor-22F were treated with increasing doses of GIP(AntPro3) and GIP(AntPro3NH2), mixed with […] GIP(Ag). Immediately after the addition, the luminescence of the cells was measured, normalized using the basal luminescence and plotted.

[6] = broader concentration range, mixed with GIP(Ag), FIG. 5B
[7] = increasing doses mixed with GIP(Ag), FIG. 5A

| Substance | serum insulin following glucose administration (time course) [1] | glucose tolerance [1] | serum glucose following glucose administration (time course) [1] | blood glucose levels compared to the untreated mice [2] | weights of individual mice [2] | plasma insulin levels on Day 15 [2] | average daily food intake compared to the untreated mice [2] | collagen staining (fibrosis), liver sections stained with picrosirius red [2] | hepatocellular ballooning and steatosis (liver H&E histology) [2] | plasma insulin levels on Day 1 [2] | liver weight, PBS control versus treated mice [2] | subcutaneous white adipose tissue (sWAT) weight [2] | tolerability / clinical observations [2] | collagen staining (fibrosis) in comparison with tirzepatide or dulaglutide [2] | change in body weight [2] | inhibition of luciferase (activation of GIPR) [3] | hepatocellular ballooning and steatosis (liver H&E histology) compared to untreated animals ([2]; higher magnifications, FIG. 8K) | insulin in the culture supernatant (glucose-stimulated insulin secretion) [4] | inhibition of GIP(Ag)-induced activation of the cAMP-luciferase reporter gene (GIPR antagonism) [5, 6] | inhibition of GIP(Ag)-induced activation of the cAMP-luciferase reporter gene (GIPR antagonism) [5, 7] |
| --- | --- | --- | --- | --- | --- | --- | --- | --- | --- | --- | --- | --- | --- | --- | --- | --- | --- | --- | --- | --- |
| GLP-1-Fc-GIP(AntPro3): chimeric protein: GLP-1 fused to GIP antagonist (amino acids 1-42, E3P) via IgG1 Fc domain; SEQ ID NO: 95 | rapid induction of insulin | improved glucose tolerance | much smaller increase in serum glucose | decrease in blood glucose | induced weight loss | significant decrease in the levels of insulin | decrease in food intake | decrease in collagen staining | decrease in hepatocellular ballooning and steatosis | rapid decrease in insulin levels | the livers of control mice that received only PBS were much heavier compared to the mice receiving treatments | decreased | well tolerated and no overt toxicities were noted | greater decrease in collagen staining compared to the livers from mice treated with tirzepatide or dulaglutide | progressive weight loss | – | – | – | – | – |
| tirzepatide [reference compound] | rapid induction of insulin | – | much smaller increase in serum glucose | decrease in blood glucose | – | significant decrease in the levels of insulin | decrease in food intake | decrease in collagen staining | decrease in hepatocellular ballooning and steatosis | – | the livers of control mice that received only PBS were much heavier compared to the mice receiving treatments | decreased | – | – | progressive weight loss | dose-dependent and saturable inhibition of luciferase with similar potency | significant decrease in hepatocellular ballooning and steatosis | – | – | – |
| GLP-1-Fc-GIP(Ag): chimeric protein: GLP-1 fused to GIP agonist (amino acids 1-42) via IgG1 hinge-CH2-CH3 Fc domain; SEQ ID NO: 93 | rapid induction of insulin | improved glucose tolerance | much smaller increase in serum glucose | decrease in blood glucose | induced weight loss | significant decrease in the levels of insulin | decrease in food intake | decrease in collagen staining | decrease in hepatocellular ballooning and steatosis | rapid decrease in insulin levels | the livers of control mice that received only PBS were much heavier compared to the mice receiving treatments | decreased | well tolerated and no overt toxicities were noted | greater decrease in collagen staining compared to the livers from mice treated with tirzepatide or dulaglutide | progressive weight loss | – | – | stimulated insulin production to a similar, if not greater magnitude than dulaglutide or tirzepatide | – | – |
| GIP(AntPro3): GIP Antagonist (amino acids 1-42, having a E3P substitution); SEQ ID NO: 97 (YAPGTFISDYSIAMDKIHQQDFVNWLLAQKGKKNDWKHNITQ) | – | – | – | – | – | – | – | – | – | – | – | – | – | – | – | – | – | – | dose-dependent inhibition of GIP(Ag)-induced activation of the cAMP-luciferase reporter gene | more potent inhibition of GIP agonist signaling than the others tested; also recorded: maximal level of a dose-dependent inhibition of GIP(Ag)-induced activation |
| dulaglutide [reference compound] | – | – | – | decrease in blood glucose | – | significant decrease in the levels of insulin | decrease in food intake | decrease in collagen staining | decrease in hepatocellular ballooning and steatosis | rapid decrease in insulin levels | the livers of control mice that received only PBS were much heavier compared to the mice receiving treatments | decreased | well tolerated and no overt toxicities were noted | – | progressive weight loss | – | – | – | – | – |
| GIP(AntPro3NH2): GIP antagonist peptide, GIP(AntPro3) presumably with amidated carboxy terminus (YAPGTFISDYSIAMDKIHQQDFVNWLLAQKGKKNDWKHNITQ; also: presumably amidated C-terminus) | – | – | – | – | – | – | – | – | – | – | – | – | – | – | – | – | – | – | dose-dependent inhibition of GIP(Ag)-induced activation of the cAMP-luciferase reporter gene | more potent inhibition of GIP agonist signaling than the others tested; also recorded: maximal level of a dose-dependent inhibition of GIP(Ag)-induced activation |
